Legend:
[1] = test system: mouse 4T1 breast cancer orthotopic tumor; assay: In vivo anti-tumor activity, intratumoral injection, 4T1 orthotopic model; conditions: for tumor suppression rate: BALB/c mice, CPT 1 mg/kg or CN 2.4 mg/kg intratumoral, NLG 500 ug/mouse gavage
cancer stem cells = assay: Effect on cancer stem cells (cell cycle, 3D tumor spheroids) from treated 4T1 tumors; format: in vivo, mouse; conditions: for G1-S cell cycle / dormancy of cancer stem cells: CD133, EdU, hoechst33342 flow cytometry
Procedure: The effect of the compound CN on cancer stem cells is studied, the specific steps were proceeded as follows. In the single cell suspension prepared in Example 6, the cell cycle (CD133, EdU, hoechst33342) of cancer stem cells was stained with antibodies, and the dormancy of the cancer stem cells was analyzed by flow cytometry. […] Fibrinogen was diluted to 20 mg/mL with T7 buffer (pH 7.4, 50 mM Tris, 150 mM NaCl), and then mixed with the above cell suspension in equal volume. 1 μL of thrombin (0.1 U/μL) was added to the 96-well plate in advance, and 50 μL of the mixed cell suspension was added. […] On the seventh day, the cell pellets in the 96-well plate were photographed and counted. The particle size of tumor cell spheroids was measured, and the number of tumor cell spheroids was counted to characterize the stemness and tumor-forming ability of tumor cells.

[2] = test system: mouse 4T1 breast cancer orthotopic tumor; assay: Effect on antitumor immune response (DC maturation, Treg) in 4T1 tumor mice; format: in vivo; conditions: for regulatory T cells (Treg) in tumors: flow cytometry CD3, CD4, CD25, FoxP3
Text: The effect of the compound CN on antitumor immune response is studied, the specific steps were proceeded as follows. The tumor and adjacent lymph nodes of the mice in Example 4 were stripped. […] The adjacent lymph nodes were squeezed through a 200-mesh screen to prepare a single cell suspension, and the maturation of lymph node dendritic cells (DC cells, CD11c, CD80, CD86) was studied with antibodies.

[3] = test system: mouse 4T1 breast cancer orthotopic tumor; assay: Anti-tumor activity of CN@PHF, tail vein, 4T1 orthotopic model; format: in vivo; conditions: CN 2.4 mg/kg, days 1, 4, 7, 10
Text: The anti-tumor activity of CN@PHF in the mouse 4T1 breast cancer orthotopic tumor model was investigated and the specific steps were proceeded as follows:
At the age of 6 weeks, 20 g female BALB/c mice were inoculated with 5×10^5 cells of mouse breast cancer 4T1 cell suspension into the fourth pair of left breast pads on the abdomen of female BALB/c mice to establish a mouse model of 4T1 tumor in situ. When the tumor volume in situ was about 100 mm^3, the mice were randomly divided into 5 groups, 10 mice in each group, and were injected with normal saline, CN, Taxol, Irinotecan, CN@PHF through the tail vein. The dose of CN was 2.4 mg/kg, and the concentrations of Taxol and Irinotecan were the same as the molar concentration of CN. The administration time on the first day was recorded as the first day, and then the above-mentioned doses were administered on the 4th, 7th, and 10th days. From the 1st day, the mouse body weight and tumor volume were measured every other day, and the tumor volume-time curve was drawn. The mice were sacrificed on the 19th day, the tumor in situ was removed, weighed, and photographed. Tumors were stained with HE and TUNEL to study tumor cell apoptosis and stained with Ki67 to study tumor cell proliferation.

[4] = test system: 4T1 (breast cancer) cells; assay: In vitro induction of immunogenic cell death; format: cell-based, mouse; conditions: 4T1 cells, 10 μM, 48 hours
Procedure: The in vitro activity of the compound CN in inducing immunogenic cell death was evaluated.
4T1 (breast cancer) cells were seeded into a 6-well plate at a density of 1×10^5 cells per well and cultured overnight. The cells were treated with PBS, CPT (camptothecin), NLG (IDO inhibitor), CPT+NLG, CN (all drug concentrations were 10 μM) for 48 hours. The supernatant was collected and cultured to detect the release of ATP and HMGB-1. The cells were trypsinized, then incubated with CRT antibody on ice for 30 minutes in the dark, and analyzed by flow cytometry. In addition, CRT eversion was also studied by immunofluorescence imaging. 4T1 cells were seeded into a confocal culture dish at a density of 1×10^5 cells per well and cultured overnight. The cells were treated with PBS, CPT (camptothecin), NLG (IDO inhibitor), CPT+NLG, CN (all drug concentrations were 10 μM) for 48 hours. The cells were washed twice with PBS and incubated with CRT antibody for 30 minutes. Washing was performed twice with PBS, and fixing was then performed with 4% paraformaldehyde. After washing was performed twice with PBS again, the nucleus was stained with DAPI for 30 minutes. After washing was performed twice, the cells were imaged with a confocal microscope.

IDO = target: T1, IDO (Homo sapiens, UniProt P14902); assay: In vitro IDO inhibitory activity in IFN-γ-stimulated Hela cells; format: cell-based
T1 construct: endogenous in cells; host or cells: HeLa cells stimulated with human IFN-γ
Procedure: The inhibitory activity of the compound CN on IDO in vitro was investigated.
Hela cells were plated with a 96-well plate at 4,000 cells/well in DMEM complete medium containing 80 ng/ml of human IFN-γ, and incubated with a series of DMEM medium containing CN or NLG at a concentration of 0 μM, 0.1 μM, 1 μM, 10 μM, and 100 μM for 24 hours after 12 hours. 150 ul culture medium was aspirated, 75 ul trichloroacetic acid aqueous solution (30% w/v) was added, incubated at 50° C. for 30 min, and centrifuged at 3000 rpm for 10 minutes. 100 ul of the supernatant was collected, 100 ul of p-dimethylaminobenzaldehyde glacial acetic acid solution (2%, w/v) was added, placed at room temperature for 10 minutes, and the absorption was detected at 492 nm.

[5] = Reduction responsiveness in GSH solution, by mass spectrometry; format: physicochemical; conditions: 100 mM GSH aqueous solution, stirred 12 hours
Procedure: Study on the reduction responsiveness of compounds was performed as follows.
A small amount of the compound CN was added to 100 mM GSH aqueous solution and stirred for 12 hours.

[6] = test system: mouse 4T1 breast cancer orthotopic tumor; assay: Influence on the cancer stem cell niche, 4T1 orthotopic model; format: in vivo; conditions: tail vein, day 13, CD133, EdU, hoechst33342
Procedure: At the age of 6 weeks, 20 g female BALB/c mice were inoculated with 5×10^5 cells of mouse breast cancer 4T1 cell suspension into the fourth pair of left breast pads on the abdomen of female BALB/c mice to establish a mouse model of 4T1 tumor in situ. […] The administration time on the first day was recorded as the first day, and then the above-mentioned doses were administered on the 4th, 7th, and 10th days. On the 13th day, 50 μL of Edu (8 mg/ml) was injected into the tumor. Three hours later, the mice were sacrificed, the tumor in situ was stripped and divided into two parts. […] Flow cytometric analysis of the cell cycle (CD133, EdU, hoechst33342) of cancer stem cells was carried out to investigate the effect of drugs on the dormancy of cancer stem cells.

T1 sequence (P14902 whole entry): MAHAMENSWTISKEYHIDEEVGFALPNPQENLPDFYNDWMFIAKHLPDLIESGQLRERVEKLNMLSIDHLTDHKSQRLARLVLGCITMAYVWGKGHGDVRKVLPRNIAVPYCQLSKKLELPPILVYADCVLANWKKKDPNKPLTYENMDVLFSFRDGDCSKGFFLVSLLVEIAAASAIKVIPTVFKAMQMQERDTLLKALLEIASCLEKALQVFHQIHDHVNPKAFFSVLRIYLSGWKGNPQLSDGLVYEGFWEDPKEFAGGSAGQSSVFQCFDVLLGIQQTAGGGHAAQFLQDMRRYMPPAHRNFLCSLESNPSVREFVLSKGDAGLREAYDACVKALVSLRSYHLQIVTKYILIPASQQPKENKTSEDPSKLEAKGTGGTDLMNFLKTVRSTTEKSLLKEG

## CC[C@@]1(O)C(=O)OCc2c1cc1n(c2=O)Cc2cc3ccccc3nc2-1 [CPT, camptothecin]
[1]; days 1, 4, 7, 10
  tumor suppression rate: 61.9%
Cancer stem cells
  G1-S cell cycle / dormancy of cancer stem cells: block the G1-S cell cycle of cancer stem cells
[2]
  regulatory T cells (Treg) in tumors: significant increase in Treg

## CC[C@@]1(OC(=O)OCSSCOC(=O)OC(CC2c3ccccc3-c3cncn32)C2CCCCC2)C(=O)OCc2c1cc1n(c2=O)Cc2cc3ccccc3nc2-1 (stereo partly drawn) [CN]
[3]
  tumor volume: significantly smaller than the normal saline group and the positive drugs Taxol and Irinotecan groups
[1]; days 1, 4, 7, 10
  tumor suppression rate: 85%
[1]; intratumoral injection, 2.4 mg/kg, days 1, 4, 7, 10
  tumor volume: significantly smaller than that of the other groups
[1]; intratumoral injection, 8 mice per group, day 15
  tumor elimination: one tumor was completely eliminated
[1]; intratumoral injection, sacrificed day 15
  weight of the tumor: significantly lower than that of the other groups
[4]
  ATP release relative to CPT and CPT+NLG groups: 2-3 times
  CRT eversion, confocal imaging: more CRT eversion
  ability to induce CRT eversion relative to CPT group, flow cytometry: about 1.5 times
  ability to induce HMGB-1: significantly stronger than that of the other groups
Cancer stem cells
  G1-S cell cycle / dormancy of cancer stem cells: significantly reduce the G1/S ratio
Cancer stem cells; fibrin gel culture, seventh day
  number and particle size of 3D spheres of tumor cells: significantly lower than those in the other groups
[2]
  regulatory T cells (Treg) in tumors: reverse the increase in Treg caused by CPT
[2]; flow cytometry CD11c, CD80, CD86
  DC maturation in lymph nodes adjacent to tumors: increased significantly
[2]; lymph nodes adjacent to tumors
  proportion of mature DC relative to CPT group: about twice that of CPT group
IDO
  IC50: ~80 nM
IDO; HeLa, read-out: IDO inhibition rate
  inhibition at 1 µM: ~100%
[5]
  reduction responsiveness (degradation products): degraded to the original camptothecin and NLG919

## CCc1c2c(nc3ccc(OC(=O)N4CCC(N5CCCCC5)CC4)cc13)-c1cc3c(c(=O)n1C2)COC(=O)[C@]3(O)CC [Irinotecan]
[6]
  dormancy / cycle inhibition of cancer stem cells: increase the dormancy of cancer stem cells
